Results published in patent US8685969B2, “Carboline carboxamide compounds useful as kinase inhibitors” (Bristol-Myers Squibb Company, priority 2010, dated 2014).

Columns and labels:
Ramos RA1 B cells = experiment: Ramos FLIPR Assay (intracellular calcium after anti-human IgM stimulation); type: cell-based; settings: Ramos RA1 B cells stimulated with goat anti-human IgM 2.5 μg/mL; peak calcium; read-out: IC50 for Inhibition of Ramos FLIPR assay
Method: Ramos RA1 B cells (ATCC CRL-1596) at a density of 2×10^6 cells/ml in RPMI minus phenol red (Invitrogen 11835-030) and 50 mM HEPES (Invitrogen 15630-130) containing 0.1% BSA (Sigma A8577) were added to one half volume of calcium loading buffer (BD bulk kit for probenecid sensitive assays, #640177) and incubated at room temperature in the dark for 1 hour. Dye-loaded cells were pelleted (Beckmann GS-CKR, 1200 rpm, RT, 5 minutes) and resuspended in RT RPMI minus phenol red with 50 mM HEPES and 10% FBS to a density of 1×10^6 cells/ml. 150 μl aliquots (150,000/well) were plated into 96 well poly-D-lysine coated assay plates (BD 35 4640) and briefly centrifuged (Beckmann GS-CKR 800 rpm, 5 minutes, without brake). 50 μl compound dilutions in 0.4% DMSO/RPMI minus phenol red+50 mM HEPES+10% FBS were added to the wells and the plate was incubated at RT in the dark for 1 hour. Assay plate was briefly centrifuged as above prior to measuring calcium levels.
Using the FLIPR1 (Molecular devices), cells were stimulated by adding goat anti-human IgM (Invitrogen AHI0601) to 2.5 μg/mL. Changes in intracellular calcium concentrations were measured for 180 seconds and percent inhibition was determined relative to peak calcium levels seen in the presence of stimulation only.

human recombinant Btk = target: T1, human recombinant Btk (Homo sapiens, UniProt Q06187); experiment: Human Recombinant Btk Enzyme Assay; type: biochemical; settings: human recombinant Btk 1 nM, ATP 20 μM, 60 min room temperature; read-out: IC50 for Inhibition of Btk
T1 construct: purchased Invitrogen Corporation
Method: Human Recombinant Btk Enzyme Assay
To V-bottom 384-well plates were added test compounds, human recombinant Btk (1 nM, Invitrogen Corporation), fluoresceinated peptide (1.5 μM), ATP (20 μM), and assay buffer (20 mM HEPES pH 7.4, 10 mM MgCl2, 0.015% Brij35 and 4 mM DTT in 1.6% DMSO), with a final volume of 30 μL. After incubating at room temperature for 60 min, the reaction was terminated by adding 45 μl of 35 mM EDTA to each sample. The reaction mixture was analyzed on the Caliper LABCHIP® 3000 (Caliper, Hopkinton, Mass.) by electrophoretic separation of the fluorescent substrate and phosphorylated product. Inhibition data were calculated by comparison to no enzyme control reactions for 100% inhibition and no inhibitor controls for 0% inhibition. Dose response curves were generated to determine the concentration required inhibiting 50% of kinase activity (IC50). Compounds were dissolved at 10 mM in dimethylsulfoxide (DMSO) and evaluated at eleven concentrations.
Using this assay, the IC50 values of the following compounds were determined.

T1 sequence (Q06187 whole entry): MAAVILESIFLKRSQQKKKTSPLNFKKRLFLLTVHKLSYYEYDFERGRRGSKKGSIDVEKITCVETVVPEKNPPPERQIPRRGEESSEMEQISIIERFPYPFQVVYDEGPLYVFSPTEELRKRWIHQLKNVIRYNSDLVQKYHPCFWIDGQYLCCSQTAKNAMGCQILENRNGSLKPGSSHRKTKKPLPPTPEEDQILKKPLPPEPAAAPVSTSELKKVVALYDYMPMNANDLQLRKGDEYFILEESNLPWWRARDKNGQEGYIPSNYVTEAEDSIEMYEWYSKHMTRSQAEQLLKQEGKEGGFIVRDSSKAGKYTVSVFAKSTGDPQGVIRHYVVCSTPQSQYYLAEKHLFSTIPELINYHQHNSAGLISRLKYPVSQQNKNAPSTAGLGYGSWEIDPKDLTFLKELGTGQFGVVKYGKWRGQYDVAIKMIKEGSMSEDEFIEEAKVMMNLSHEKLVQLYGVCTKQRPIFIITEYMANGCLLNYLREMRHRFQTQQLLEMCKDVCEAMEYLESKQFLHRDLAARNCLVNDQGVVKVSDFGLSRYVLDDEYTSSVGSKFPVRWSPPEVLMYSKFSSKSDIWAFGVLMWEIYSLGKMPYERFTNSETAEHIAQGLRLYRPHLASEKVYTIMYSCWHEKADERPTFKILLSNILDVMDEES

Compound | IC50 (Ramos RA1 B cells) [nM] | IC50 (human recombinant Btk) [nM]
COCCOc1ccc2c(c1)[nH]c1c(C(N)=O)ncc(-c3cccc(N4Cc5ccc(F)cc5C4=O)c3F)c12 [Example 85] | 1420 | 
Cc1c(-c2nnc(C(N)=O)c3[nH]c4cc(OCCO)ccc4c23)cccc1N1Cc2ccc(Cl)cc2C1=O [Example 99] |  | 8
Cc1c(-c2nnc(C(N)=O)c3[nH]c4cc(C(C)(C)O)ccc4c23)cccc1N1Cc2ccc(Cl)cc2C1=O [Example 100] | 19 | 
NC(=O)c1ncc(-c2cccc(N3Cc4ccc(Cl)cc4C3=O)c2F)c2c1[nH]c1cc(N3CCOCC3)ccc12 [Example 77] | 81 | 
COCCOc1ccc2c(c1)[nH]c1c(C(N)=O)nc(C)c(-c3cccc(-n4cnc5ccccc5c4=O)c3C)c12 [Example 37, 7-(2-Methoxyethoxy)-3-methyl-4-(2-methyl-3-(4-oxoquinazolin-3(4H)-yl)phenyl)-9H-pyrido[3,4-b]indole-1-carboxamide] | 190 | 14
COc1ccc2c(c1)C(=O)N(c1cccc(-c3cnc(C(N)=O)c4[nH]c5cc(C(C)O)ccc5c34)c1C)C2 (stereo not drawn) [Example 31, 7-(1-Hydroxyethyl)-4-(3-(6-methoxy-1-oxoisoindolin-2-yl)-2-methylphenyl)-9H-pyrido[3,4-b]indole-1-carboxamide] | 71 | 
Cc1c(-c2ccc(C(N)=O)c3[nH]c4cnc(C(C)(C)O)cc4c23)cccc1-n1cnc2cccc(F)c2c1=O [Example 110] | 96 | 14
Cc1c(-c2cnc(C(N)=O)c3[nH]c4cc(OCCO)ccc4c23)cccc1-n1cnc2ccc(F)cc2c1=O [Example 90] | 84 | 
CN(C)c1ccc(C(=O)Nc2cccc(-c3cnc(C(N)=O)c4[nH]c5cc(C(=O)N6CCOCC6)ccc5c34)c2F)cc1 [Example 55] |  | 43
Cc1c(-c2cnc(C(N)=O)c3[nH]c4cc(N5CCOCC5)ccc4c23)cccc1N1Cc2ccc(Cl)cc2C1=O [Example 92] | 56 | 
COc1ccc2c(c1)C(=O)N(c1cccc(-c3nnc(C(N)=O)c4[nH]c5cc(C(C)(C)O)ccc5c34)c1C)C2 [Example 36, 7-(2-Hydroxypropan-2-yl)-1-(3-(6-methoxy-1-oxoisoindolin-2-yl)-2-methylphenyl)-5H-pyridazino[4,5-b]indole-4-carboxamide] |  | 3
COc1ccc2[nH]c3c(C(N)=O)ncc(-c4ccccc4F)c3c2c1 [Example 56] |  | 32
Cc1c(-c2ccc(C(N)=O)c3[nH]c4cc(C(=O)N(C)C)ncc4c23)cccc1-n1cnc2ccccc2c1=O [Example 117] | 294 | 23
COCCOc1ccc2c(c1)[nH]c1c(C(N)=O)ncc(-c3cccc(N4Cc5ccc(Cl)cc5C4=O)c3C)c12 [Example 9, 4-(3-(6-Chloro-1-oxoisoindolin-2-yl)-2-methylphenyl)-7-(2-methoxyethoxy)-9H-pyrido[3,4-b]indole-1-carboxamide] |  | 2
Cc1c(-c2cnc(C(N)=O)c3[nH]c4cc(N5CCOCC5)ccc4c23)cccc1-n1cnc2c(F)cccc2c1=O [Example 97] | 15 | 
Cc1c(-c2nnc(C(N)=O)c3[nH]c4cc(OCCO)ccc4c23)cccc1-n1cnc2ccccc2c1=O [Example 34, 7-(2-Hydroxyethoxy)-1-(2-methyl-3-(4-oxoquinazolin-3(4H)-yl)phenyl)-5H-pyridazino[4,5-b]indole-4-carboxamide] |  | 7
NC(=O)c1ncc(-c2cccc(NC(=O)N3Cc4ccc(F)cc4C3)c2F)c2c1[nH]c1cc(N3CCOCC3)ccc12 [Example 73] | 1030 | 
COCCOc1ccc2c(c1)[nH]c1c(C(N)=O)ncc(-c3cccc(N4Cc5ccc(OC)cc5C4=O)c3F)c12 [Example 82] | 1080 | 
COc1ccc2c(c1)C(=O)N(c1cccc(-c3nnc(C(N)=O)c4[nH]c5cc(C(C)=O)ccc5c34)c1C)C2 [Example 35, 7-Acetyl-1-(3-(6-methoxy-1-oxoisoindolin-2-yl)-2-methylphenyl)-5H-pyridazino[4,5-b]indole-4-carboxamide] | 1380 | 57
COCCOc1ccc2c(c1)[nH]c1c(C(N)=O)nnc(-c3cccc(N4Cc5ccc(Cl)cc5C4=O)c3C)c12 [Example 32, 1-(3-(6-Chloro-1-oxoisoindolin-2-yl)-2-methylphenyl)-7-(2-methoxyethoxy)-5H-pyridazino[4,5-b]indole-4-carboxamide] |  | 7
COCCOc1ccc2c(c1)[nH]c1c(C(N)=O)ncc(-c3cccc(-n4cnc5c(F)cccc5c4=O)c3C)c12 [Example 87] | 63 | 7
Cc1c(-c2cnc(C(N)=O)c3[nH]c4cc(OCCO)ccc4c23)cccc1-n1cnc2ccccc2c1=O [Example 11, 7-(2-Hydroxyethoxy)-4-(2-methyl-3-(4-oxoquinazolin-3(4H)-yl)phenyl)-9H-pyrido[3,4-b]indole-1-carboxamide] |  | 3
Cc1ccc(C(=O)Nc2cccc(-c3cnc(C(N)=O)c4[nH]c5cc(N6CCOCC6)ccc5c34)c2F)nc1 [Example 60] |  | 85
Cc1c(NC(=O)c2ccc(F)cc2)cccc1-c1cnc(C(N)=O)c2[nH]c3cc(N4CCOCC4)ccc3c12 [Example 64] |  | 8
Cc1c(-c2ncc(C(N)=O)c3[nH]c4cc(C(C)(C)O)ccc4c23)cccc1N1Cc2ccc(F)cc2C1=O [Example 41, 1-(3-(6-Fluoro-1-oxoisoindolin-2-yl)-2-methylphentl)-7-(2-hydroxypropan-2-yl)-5H-pyrido[4,3-b]indole-4-carboxamide] | > 500 | 6
Cc1c(-c2ccc(C(N)=O)c3[nH]c4c(c23)CNCC4)cccc1-n1cnc2ccccc2c1=O [Example 42, 9-(2-Methyl-3-(4-oxoquinazolin-3(4H)-yl)phenyl)-2,3,4,5-tetrahydro-1H-pyrido[4,3-b]indole-6-carboxamide] | > 1000 | 521
Cc1c(-c2cnc(C(N)=O)c3[nH]c4cc(C(C)O)ccc4c23)cccc1-n1cnc2ccccc2c1=O (stereo not drawn) [Example 30, 7-(1-Hydroxyethyl)-4-(2-methyl-3-(4-oxoquinazolin-3(4H)-yl)phenyl)-9H-pyrido[3,4-b]indole-1-carboxamide] | 16 | 3
NC(=O)c1ncc(-c2ccccc2F)c2c1[nH]c1ccc(F)cc12 [Example 54] |  | 65
Cc1c(-c2cnc(C(N)=O)c3[nH]c4cc5c(cc4c23)OCO5)cccc1N1Cc2ccc(Cl)cc2C1=O [Example 79] | 856 | 
Cc1c(NC(=O)N2Cc3ccc(F)cc3C2)cccc1-c1cnc(C(N)=O)c2[nH]c3cc(N4CCOCC4)ccc3c12 [Example 71] | 71 | 3
